We go through seven compounds from PMC5518309 (ChemMedChem, 2014).

Holding throughout (type): cell-based
One experiment deals with T1, hY5R (Homo sapiens, UniProt Q15761).
T1 sequence (Q15761 1-445): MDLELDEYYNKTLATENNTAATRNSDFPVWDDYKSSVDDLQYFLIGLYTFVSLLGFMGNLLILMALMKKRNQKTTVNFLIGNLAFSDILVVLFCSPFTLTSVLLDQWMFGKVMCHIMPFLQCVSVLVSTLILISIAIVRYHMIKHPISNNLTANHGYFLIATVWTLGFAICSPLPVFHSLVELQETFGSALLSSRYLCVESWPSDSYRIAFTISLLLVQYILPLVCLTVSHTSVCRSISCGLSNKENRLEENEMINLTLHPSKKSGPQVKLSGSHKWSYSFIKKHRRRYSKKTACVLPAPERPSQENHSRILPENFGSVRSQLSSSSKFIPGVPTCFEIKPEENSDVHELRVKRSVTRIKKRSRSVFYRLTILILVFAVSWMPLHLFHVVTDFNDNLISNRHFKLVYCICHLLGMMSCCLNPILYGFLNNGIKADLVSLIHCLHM
The experiment can be described thus: Inositol phosphate accumulation assay, hY5R. As to conditions: for Emax: read-out: hY5R Emax.

In another experiment the target is T2, hY2R (Homo sapiens, UniProt P49146).
T2 sequence (P49146 1-381): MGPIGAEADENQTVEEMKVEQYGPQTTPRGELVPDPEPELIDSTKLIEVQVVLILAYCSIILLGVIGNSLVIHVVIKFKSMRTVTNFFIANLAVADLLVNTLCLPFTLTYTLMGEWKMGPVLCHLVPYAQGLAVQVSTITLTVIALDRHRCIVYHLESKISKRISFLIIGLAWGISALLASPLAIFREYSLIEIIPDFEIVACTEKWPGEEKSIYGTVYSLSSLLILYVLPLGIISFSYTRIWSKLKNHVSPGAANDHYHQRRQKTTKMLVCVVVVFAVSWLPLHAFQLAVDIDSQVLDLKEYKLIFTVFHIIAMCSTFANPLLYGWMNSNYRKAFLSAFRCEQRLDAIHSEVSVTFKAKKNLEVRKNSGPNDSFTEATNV
As to the kind of experiment: Inositol phosphate accumulation assay, hY2R. The conditions noted are these: for Emax: read-out: hY2R Emax.

For a further experiment, the target named is T3, hY1R (Homo sapiens, UniProt P25929).
T3 sequence (P25929 1-384): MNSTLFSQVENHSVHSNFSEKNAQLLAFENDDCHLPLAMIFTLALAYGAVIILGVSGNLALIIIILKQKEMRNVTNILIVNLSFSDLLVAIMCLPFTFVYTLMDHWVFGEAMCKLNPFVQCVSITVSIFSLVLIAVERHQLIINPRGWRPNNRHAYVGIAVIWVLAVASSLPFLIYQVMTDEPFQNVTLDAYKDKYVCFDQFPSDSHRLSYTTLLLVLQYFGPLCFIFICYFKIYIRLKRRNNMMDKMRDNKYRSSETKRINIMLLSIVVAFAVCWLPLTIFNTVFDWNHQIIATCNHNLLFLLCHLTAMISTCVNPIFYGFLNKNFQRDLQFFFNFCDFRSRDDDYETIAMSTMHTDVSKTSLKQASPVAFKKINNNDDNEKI
The experiment can be described thus: Inositol phosphate accumulation assay, hY1R. As to conditions: for Emax: read-out: hY1R Emax.

Another experiment deals with hY4R (Homo sapiens, UniProt P50391). As to the kind of experiment: Inositol phosphate accumulation assay, hY4R. The conditions noted are these: for Emax: read-out: hY4R Emax.

Numbered stars: 1 amine (or outer) side, 2 acyl side, 3 side chain; on linkers, the order of the positions; unused ones are H or OH. Side chains are listed from the residue outwards. Ends that are not written are not given here. Peptide text beside a SMILES is read from it. * marks the point of attachment. γGlu = O=C(O)[C@H](CCC(=O)[*:2])N[*:1]; Palmitoyl = CCCCCCCCCCCCCCCC(=O)*; Octanoyl = CCCCCCCC(=O)*; Propionyl = CCC(=O)*

hY4R, sequence (P50391 whole entry): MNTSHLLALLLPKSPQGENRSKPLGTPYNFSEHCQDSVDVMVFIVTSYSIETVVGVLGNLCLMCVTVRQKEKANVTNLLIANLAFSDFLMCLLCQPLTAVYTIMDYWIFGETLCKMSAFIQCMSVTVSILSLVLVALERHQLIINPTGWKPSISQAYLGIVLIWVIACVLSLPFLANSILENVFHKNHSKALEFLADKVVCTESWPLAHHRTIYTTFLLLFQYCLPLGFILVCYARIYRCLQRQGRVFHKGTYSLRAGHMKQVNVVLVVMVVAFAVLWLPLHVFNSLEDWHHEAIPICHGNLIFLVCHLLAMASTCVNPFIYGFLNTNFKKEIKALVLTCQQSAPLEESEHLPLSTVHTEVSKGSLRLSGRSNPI

Take `CCCCCCCCCCCCCCCC(=O)N[C@@H](CCC(=O)NCCCC[C@H](NC(=O)[C@H](C)NC(=O)[C@H](Cc1ccc(O)cc1)NC(=O)[C@H](CCC(N)=O)NC(=O)[C@H](C)NC(=O)[C@H](CCSC)NC(=O)[C@H](CCC(N)=O)NC(=O)[C@H](CCC(=O)O)NC(=O)[C@@H]1CCCN1C(=O)[C@@H](NC(=O)[C@H](C)NC(=O)[C@H](CC(N)=O)NC(=O)[C@H](CC(=O)O)NC(=O)CNC(=O)[C@@H]1CCCN1C(=O)[C@H](Cc1ccc(O)cc1)NC(=O)[C@@H](NC(=O)[C@@H]1CCCN1C(=O)[C@H](CCC(=O)O)NC(=O)[C@H](CC(C)C)NC(=O)[C@@H]1CCCN1)C(C)C)[C@@H](C)O)C(=O)N[C@@H](CC(=O)O)C(=O)N[C@@H](CC(C)C)C(=O)N[C@@H](CCCNC(=N)N)C(=O)N[C@@H](CCCNC(=N)N)C(=O)N[C@@H](Cc1ccc(O)cc1)C(=O)N[C@H](C(=O)N[C@@H](CC(N)=O)C(=O)N[C@@H](CCSC)C(=O)N[C@@H](CC(C)C)C(=O)N[C@H](C(=O)N[C@@H](CCCNC(=N)N)C(=O)N1CCC[C@H]1C(=O)N[C@@H](CCCNC(=N)N)C(=O)N[C@@H](Cc1ccc(O)cc1)C(N)=O)[C@@H](C)O)[C@@H](C)CC)C(=O)O` [compound 12, [K^22(E-Pam)]hPP2–36] (H-PLEPVYPGDNATPEQMAQYAK([γGlu-Palmitoyl])DLRRYINMLTRPRY-NH2): the EC50 (as a rule, the concentration that produces a half-maximal response) on hY5R was determined as 1.9 nM; on hY2R it was 1.7 nM; on hY1R it was 16.5 nM; on hY4R it was 1.5 nM. The Emax (commonly the size of the effect at its maximum, as opposed to the concentration needed) on hY5R worked out at 81 ± 6%; on hY2R, 103 ± 12%; on hY1R it was 93 ± 6%; on hY4R, 78 ± 4%.

In the case of “PLEPVYPGDNATPEQMAQYAKDLRRYINMLTRPRY-NH2 [compound 8, [K^22]hPP2–36]”, the EC50 on hY5R is 6.1 nM; at hY2R, 67.1 nM; on hY1R, 51.4 nM; on hY4R it was 1.9 nM. The Emax on hY5R was 89 ± 5%; at hY2R it was 107 ± 4%; on hY1R, 101 ± 7%; on hY4R, 91 ± 3%.

With `CCCCCCCC(=O)N[C@@H](CCC(=O)NCCCC[C@H](NC(=O)[C@H](CC(N)=O)NC(=O)[C@@H](NC(=O)[C@H](Cc1ccc(O)cc1)NC(=O)[C@H](CCCNC(=N)N)NC(=O)[C@H](CCCNC(=N)N)NC(=O)[C@H](CC(C)C)NC(=O)[C@H](CC(=O)O)NC(=O)[C@H](C)NC(=O)[C@H](C)NC(=O)[C@H](Cc1ccc(O)cc1)NC(=O)[C@H](CCC(N)=O)NC(=O)[C@H](C)NC(=O)[C@H](CCSC)NC(=O)[C@H](CCC(N)=O)NC(=O)[C@H](CCC(=O)O)NC(=O)[C@@H]1CCCN1C(=O)[C@@H](NC(=O)[C@H](C)NC(=O)[C@H](CC(N)=O)NC(=O)[C@H](CC(=O)O)NC(=O)CNC(=O)[C@@H]1CCCN1C(=O)[C@H](Cc1ccc(O)cc1)NC(=O)[C@@H](NC(=O)[C@@H]1CCCN1C(=O)[C@H](CCC(=O)O)NC(=O)[C@H](CC(C)C)NC(=O)[C@@H]1CCCN1)C(C)C)[C@@H](C)O)[C@@H](C)CC)C(=O)N[C@@H](CC(C)C)C(=O)N[C@H](C(=O)N[C@@H](CCCNC(=N)N)C(=O)N1CCC[C@H]1C(=O)N[C@@H](CCCNC(=N)N)C(=O)N[C@@H](Cc1ccc(O)cc1)C(N)=O)[C@@H](C)O)C(=O)O` [16a, [K^30(E-Capr)]hPP2–36] (H-PLEPVYPGDNATPEQMAQYAADLRRYINK([γGlu-Octanoyl])LTRPRY-NH2), the 50% effective concentration (EC50) on hY5R is 386 nM; at hY2R, greater than 1000 nM; at hY1R, greater than 1000 nM; on hY4R, 1.2 nM. In addition, the Emax on hY5R came out at 75 ± 5%; at hY2R, 85 ± 5%; on hY1R it was 84 ± 6%; on hY4R, 82 ± 4%.

Turning to `CCC(=O)N[C@@H](CCC(=O)NCCCC[C@H](NC(=O)[C@H](C)NC(=O)[C@H](Cc1ccc(O)cc1)NC(=O)[C@H](CCC(N)=O)NC(=O)[C@H](C)NC(=O)[C@H](CCSC)NC(=O)[C@H](CCC(N)=O)NC(=O)[C@H](CCC(=O)O)NC(=O)[C@@H]1CCCN1C(=O)[C@@H](NC(=O)[C@H](C)NC(=O)[C@H](CC(N)=O)NC(=O)[C@H](CC(=O)O)NC(=O)CNC(=O)[C@@H]1CCCN1C(=O)[C@H](Cc1ccc(O)cc1)NC(=O)[C@@H](NC(=O)[C@@H]1CCCN1C(=O)[C@H](CCC(=O)O)NC(=O)[C@H](CC(C)C)NC(=O)[C@@H]1CCCN1)C(C)C)[C@@H](C)O)C(=O)N[C@@H](CC(=O)O)C(=O)N[C@@H](CC(C)C)C(=O)N[C@@H](CCCNC(=N)N)C(=O)N[C@@H](CCCNC(=N)N)C(=O)N[C@@H](Cc1ccc(O)cc1)C(=O)N[C@H](C(=O)N[C@@H](CC(N)=O)C(=O)N[C@@H](CCSC)C(=O)N[C@@H](CC(C)C)C(=O)N[C@H](C(=O)N[C@@H](CCCNC(=N)N)C(=O)N1CCC[C@H]1C(=O)N[C@@H](CCCNC(=N)N)C(=O)N[C@@H](Cc1ccc(O)cc1)C(N)=O)[C@@H](C)O)[C@@H](C)CC)C(=O)O` [compound 9, [K^22(E-Prop)]hPP2–36] (H-PLEPVYPGDNATPEQMAQYAK([γGlu-Propionyl])DLRRYINMLTRPRY-NH2), the EC50 was 21.9 nM at hY5R, greater than 1000 nM on hY2R, greater than 1000 nM at hY1R and 1.1 nM on hY4R. Moreover, the Emax is 83 ± 2% at hY5R, 88 ± 6% on hY2R, 92 ± 4% at hY1R and 96 ± 6% on hY4R.

In the case of “PLEPVYPGDNATPEQMAQYAADLRRYINKLTRPRY-NH2 [14a, [K^30]hPP2–36]”, the results for the EC50 at hY5R, on hY1R and on hY4R were 23.9 nM, greater than 1000 nM and 1.4 nM, respectively. In addition, the Emax on hY5R was 79 ± 4%; at hY1R, 93 ± 5%; on hY4R, 95 ± 4%.

As to `CCC(=O)N[C@@H](CCC(=O)NCCCC[C@H](NC(=O)[C@H](CC(N)=O)NC(=O)[C@@H](NC(=O)[C@H](Cc1ccc(O)cc1)NC(=O)[C@H](CCCNC(=N)N)NC(=O)[C@H](CCCNC(=N)N)NC(=O)[C@H](CC(C)C)NC(=O)[C@H](CC(=O)O)NC(=O)[C@H](C)NC(=O)[C@H](C)NC(=O)[C@H](Cc1ccc(O)cc1)NC(=O)[C@H](CCC(N)=O)NC(=O)[C@H](C)NC(=O)[C@H](CCSC)NC(=O)[C@H](CCC(N)=O)NC(=O)[C@H](CCC(=O)O)NC(=O)[C@@H]1CCCN1C(=O)[C@@H](NC(=O)[C@H](C)NC(=O)[C@H](CC(N)=O)NC(=O)[C@H](CC(=O)O)NC(=O)CNC(=O)[C@@H]1CCCN1C(=O)[C@H](Cc1ccc(O)cc1)NC(=O)[C@@H](NC(=O)[C@@H]1CCCN1C(=O)[C@H](CCC(=O)O)NC(=O)[C@H](CC(C)C)NC(=O)[C@@H]1CCCN1)C(C)C)[C@@H](C)O)[C@@H](C)CC)C(=O)N[C@@H](CC(C)C)C(=O)N[C@H](C(=O)N[C@@H](CCCNC(=N)N)C(=O)N1CCC[C@H]1C(=O)N[C@@H](CCCNC(=N)N)C(=O)N[C@@H](Cc1ccc(O)cc1)C(N)=O)[C@@H](C)O)C(=O)O` [15a, [K^30(E-Prop)]hPP2–36] (H-PLEPVYPGDNATPEQMAQYAADLRRYINK([γGlu-Propionyl])LTRPRY-NH2), the EC50 at hY5R is 937 nM; on hY2R, greater than 1000 nM; on hY1R it was greater than 1000 nM; on hY4R, 1.3 nM. The Emax at hY5R was determined as 70 ± 3%; on hY2R, 88 ± 6%; on hY1R, 99 ± 4%; on hY4R, 88 ± 4%.

On to `CC[C@H](C)[C@H](NC(=O)[C@H](Cc1ccc(O)cc1)NC(=O)[C@H](CCCNC(=N)N)NC(=O)[C@H](CCCNC(=N)N)NC(=O)[C@H](CC(C)C)NC(=O)[C@H](CC(=O)O)NC(=O)[C@H](C)NC(=O)[C@H](C)NC(=O)[C@H](Cc1ccc(O)cc1)NC(=O)[C@H](CCC(N)=O)NC(=O)[C@H](C)NC(=O)[C@H](CCSC)NC(=O)[C@H](CCC(N)=O)NC(=O)[C@H](CCC(=O)O)NC(=O)[C@@H]1CCCN1C(=O)[C@@H](NC(=O)[C@H](C)NC(=O)[C@H](CC(N)=O)NC(=O)[C@H](CC(=O)O)NC(=O)CNC(=O)[C@@H]1CCCN1C(=O)[C@H](Cc1ccc(O)cc1)NC(=O)[C@@H](NC(=O)[C@@H]1CCCN1C(=O)[C@H](CCC(=O)O)NC(=O)[C@H](CC(C)C)NC(=O)[C@@H]1CCCN1C(=O)[C@H](C)N)C(C)C)[C@@H](C)O)C(=O)N[C@@H](CC(N)=O)C(=O)N[C@@H](CCSC)C(=O)N[C@@H](CC(C)C)C(=O)N[C@H](C(=O)N[C@@H](CCCNC(=N)N)C(=O)N1CCC[C@H]1C(=O)N[C@@H](CCCNC(=N)N)C(=O)N[C@@H](Cc1ccc(O)cc1)C(N)=O)[C@@H](C)O` [1a, hPP, reference compound], for which the Emax at hY5R turned out to be 90 ± 5%; on hY2R, 96 ± 5%; at hY1R it was 95 ± 3%.
